Measurements published in patent US10105384B2, “Nucleic acids targeting TCTP for use in the treatment of chemo- or hormone-resistant cancers” (INSTITUT NATIONAL DE LA SANTE ET DE LA RECHERCHE MEDICALE …, priority 2010, dated 2018).
Peptide text beside a SMILES is read from it. * marks the point of attachment. Cbz = O=C(OCc1ccccc1)*

Tests used:
Type in all cases: cell-based, human
TCTP [1] = test: ASO sequences screening: TCTP expression by western blot and/or qRT-PCR; settings: WB and/or qRT-PCR, PC-3 cells overexpressing TCTP
Experimental: (§1) Western Blot analysis was performed as described previously (Rocchi et al., 2004, Cancer Res. 64:6595-602) with 1:5000 rabbit anti-Hsp27 polyclonal antibody (Assay Designs, Villeurbanne, France), 1:2000 rabbit TCTP polyclonal antibody (Abcam Inc., Cambridge, UK), 1:250 rabbit anti-MSL1v1 polyclonal antibody (Abcam Inc.), 1:500 mouse anti-ubiquitin monoclonal antibody (Santa Cruz Biotechnology Inc., Heidelberg, Germany) or 1:1000 rabbit anti-caspase-3 polyclonal antibody (Cell Signalling Technology Inc., Danvers, USA). Loading levels were normalized using 1:5000 rabbit anti-glyceraldehyde-3-phosphate dehydrogenase polyclonal (Abcam Inc.) or 1:2500 mouse anti-vinculine monoclonal antibodies (Sigma Chemical Co., St Louis, Mo., USA).
The quantitative reverse transcription polymerase chain reaction (qRT-PCR) analysis was done on a LightCycler detection system (Roche Applied Science, Meylan, France). Expression levels of 18S subunit of the ribosome gene were used as an internal control. First strand cDNA was synthesized from 1 μg of total RNA using random hexamers and expanded by reverse transcriptase according to the manufacturer's instructions (ImProm-II Reverse Transcription System, Promega, Charbonniéres-les-Bains, France), subsequently diluted 1:10 with water, and stored at −20° C. until use. TCTP and 18S polymerase chain reaction (PCR) products were detected by quantitative real time PCR (qRT-PCR) using the SYBR Premix Ex Taq (Takara Bio Inc, St Germain en Laye, France) following the manufacturer's instructions. Five microliters of diluted cDNA template were mixed with 10 μl SYBR Premix Ex Taq (including Taq polymerase, reaction buffer, MgCl2, SYBR green I dye, and deoxynucleotide triphosphate mix) and 0.4 μM forward and reverse primers, in a final volume of 20 μl. The following primers were used: TCTP forward 5′-[…]-3′ (SEQ ID NO: 8) and TCTP reverse 5′-[…]-3′; (SEQ ID NO: 9); 18S forward 5′-[…]-3′ (SEQ ID NO: 10) and 18S reverse 5′-[…]-3′ (SEQ ID NO: 11). After an initial Taq activation for 10 seconds at 95° C., Light Cycler PCR was done using 55 cycles with the following cycling conditions: 95° C. for 5 seconds, 58° C. for 7 seconds, and 72° C. for 14 seconds. Each sample was analyzed in duplicate and the experiment was repeated three times. Results were analyzed using RealQuant data analysis software (Roche, Neuilly-sur-seine, France). The results analysis was done with the 2(-Delta Delta C(T)) Method (Livak K J. et al., 2001; Methods. 25:402-8).
In order to find a sequence ASO having an inhibiting effect on TCTP expression, 30 ASO sequences have been designed 26 of which are shown in table 1. Said 30 sequences cover the TCTP mRNA (accession number NM_003295). Using BLAST program, the specificity of said sequences has been studied. Among said 30 sequences, only 15 sequences have been identified as being specific for TCPT mRNA sequence (see table 1). The effect of said ASO sequences on TCTP expression was tested by western blot analysis (WB) and/or by quantitative reverse transcription polymerase chain reaction (qRT-PCR) on PC-3 cells overexpressing TCTP. WB and qRT-PCR were performed as exposed in example 1.

PC-3 cells = test: MTT cell growth assay, PC-3 cells; settings: PC-3 cells, 50 nM docetaxel 24 h, MTT
Experimental: In brief, cells were seeded in each well of 12-well microtiter plates (30 000 to 50 000 cells per well) and allowed to attach overnight. To study the effect of TCTP downregulation on apoptosis induced by docetaxel, PC-3 cells were transiently transfected the day after seeding with 5 nM of TCTP siRNA for 48 h or 100 nM of TCTP ASO for 72 h. Cells were then treated with 50 nM of docetaxel and MTT assays were performed after 24 h. To assess the effect of TCTP downregulation on Hsp27 cytoprotection, LNCaP-Mock and -Hsp27 cells were transiently transfected the day after seeding with 5 nM of TCTP siRNA for 48 h. The down- or upregulation of TCTP effect on LNCaP and C4-2 cell viability was realized after transient transfections with 100 nM of TCTP ASO or 0.02 μg/μl of pDEST-TCTP for 72 h and 48 h respectively. Cells were then treated with 1 nM of docetaxel in serum-free media (mimics androgen withdrawal in vitro) and crystal violet assays were performed the day after. Each assay was performed in triplicate.
To assess the effect of TCTP down-regulation on CR cell growth, PC-3 cells were treated for 1 day with 5 nM TCTP siRNA or for 2 days with 100 nM TCTP ASO. At the end of the treatment, PC-3 cells were incubated with 50 nM of docetaxel. Growth rates of PC-3 cells were examined using the 3-(4,5-dimethylthiazol-2-yl)-2,5-diphenyltetrazolium bromide assay. […] The effect of the inhibition of TCTP on cell survival was analyzed in PC-3 after combined ASO and docetaxel-chemotherapy treatment. After 24 h of treatment with 50 nM of docetaxel, cell viability was determined using a MTT assay. The experiment was repeated in triplicate. *** differs from PC-3 transfected with control-siRNA (P50.001) using Statview software. […] The same effect has been observed with TCTP siRNA (SEQ ID NO: 3) and 5′-[…]-3′ (SEQ ID NO: 14) and 5′-[…]-3′ (SEQ ID NO: 15) ASOs.
PC3 cells were transfected with a TCTP siRNA of SEQ ID NO: 3. Cell proliferation and apoptosis were studied using respectively MTT (3-(4,5-dimethylthiazol-2-yl)-2,5-diphenyl tetrazolium bromure) assay and flow cytometry.
PC3 cells were transfected with a TCTP ASO of SEQ ID NO: 2. Cell proliferation and apoptosis were studied using respectively MTT assay and flow cytometry.

TCTP [2] = test: TCTP level in LNCaP cells after Hsp27 down-regulation by OGX-427 (western blot, mRNA)
Experimental: as §1
2′-O-(2-rnethoxyethyl) ASO, OGX-427, was obtained from OncoGenex. The sequence of OGX-427 corresponds to the human Hsp27 translation initiation site (5′-GGGACGCGG-CGCTCGGTCAT-3′) (SEQ ID NO: 12). A mismatch ASO (ASO; 5′-[…]-3′) (SEQ ID NO: 13) was used as a control. The TCTP phosphorithioate ASO targeting the human TCTP (5′-[…]-3′) (SEQ ID NO: 2) and the control oligonucleotide (5′-CGTGTAGGTACGGCAGATC-3′) (SEQ ID NO: 4) were purchased from Operon (Eurofin MWG, Courtaboeuf, France) and designated ASO TCTP or ASO scrambled. […]

TCTP [3] = test: TCTP half-life / proteasomal degradation in PC-3 cells (western blot); settings: for TCTP protein levels decrease: PC-3 cells, cycloheximide alone 20 μg/ml
Experimental: Cells were plated at a density of 25,000 (PC-3) and 75 000 (LNCaP and C4-2) by 1.9 cm^2 and treated the day after with indicated siRNA or ASO for 1 or 2 days respectively. Oligofectamine, a cationic lipid (Invitrogen), was used to increase siRNA or ASO uptake into the cells. Cells were treated with indicated siRNA or ASO concentrations after a preincubation for 20 min with […] of oligofectamine in serum free OPTI-MEM (Invitrogen). Four hours later, 1 ml of FCS was added in the medium. […]
To determine whether the ubiquitination of TCTP results in its proteasomal degradation, TCTP half-life was determined after OGX-427 treatment, in the presence or absence of the proteasome inhibitor MG132 and protein synthesis inhibitor cycloheximide after 2 days.

| Compound | ability to inhibit TCTP expression (TCTP [1]) | best ability to inhibit specifically TCTP expression (TCTP [1]) | enhancement of docetaxel sensitivity (PC-3 cells) | other results |
| --- | --- | --- | --- | --- |
| 5′-AACTTGTTTCCTGCAGGTGA-3′ (all phosphorothioate, sugars by position and methylation of C not given here) [ASO15] | strong ability to inhibit TCTP expression | best ability to inhibit specifically TCTP expression | same effect | – |
| 5′-GGGACGCGG-CGCTCGGTCAT-3′ (antisense GGGACGCGGCGCTCGGTCAT; 2'-O-(2-methoxyethyl) modified ASO, pattern not given here) [OGX-427, 2′-O-(2-methoxyethyl) ASO from OncoGenex corresponding to the human Hsp27 translation initiation site] | – | – | – | TCTP mRNA expression level (TCTP [2]; LNCaP cells treated by OGX-427): without any change; TCTP protein level lower than OGX-427-control (TCTP [2]; LNCaP cells, western blot): 70% |
| 5′-TGGTTCATGACAATATCGAC-3′ (all phosphorothioate, sugars by position and methylation of C not given here) [ASO14] | strong ability to inhibit TCTP expression | best ability to inhibit specifically TCTP expression | same effect | – |
| CC(C)C[C@@H](C=O)NC(=O)[C@H](CC(C)C)NC(=O)[C@H](CC(C)C)NC(=O)OCc1ccccc1 [MG132] (Cbz-Leu-Leu-Leu-aldehyde) | – | – | – | TCTP half-life (TCTP [3]; PC-3 cells after OGX-427 treatment, MG132 10 μmol/L): prolonged the half-life of TCTP |
| C[C@@H]1C[C@@H]([C@H](O)CC2CC(=O)NC(=O)C2)C(=O)[C@@H](C)C1 [cycloheximide] | – | – | – | TCTP protein levels decrease (TCTP [3]; 24 h): 40%; TCTP protein levels decrease (TCTP [3]; 48 h): 60% |
